The record followed here is patent US12552772B2, “2-pyrazole anilines and related analogs for inhibiting YAP/TAZ-TEAD” (KATHOLIEKE UNIVERSITEIT LEUVEN, priority 2021, dated 2026).

Molecules are shown by their SMILES. Bounds are passed on as bounds.

Holding throughout (type): cell-based
One experiment relates to NCI-H2052. Nature of the experiment: Mesothelioma cell line proliferation assay (ATPlite), NCI-H2052. Particulars: Homo sapiens, NCI-H2052, 144 h, NCI-H2052 cells, 6 days, ATPlite cell viability. The method, then:
(§1) Mesothelioma cell lines, NCI-H226 and NCI-H2052 (all sourced from the ATCC cell culture collection) are plated in 96-well plates (Corning® 96 Well White Polystyrene Microplate clear flat bottom, white polystyrene (TC-Treated)), at 1500 cells/well in full medium (RPMI 1640 ATCC modification with L-glutamine, HEPES, Phenol Red, Sodium Pyruvate, High glucose, Low sodium bicarbonate and 10% fetal bovine serum). Cells are incubated overnight at 37° C. in an incubator with 5% CO2. Then compounds, dissolved in DMSO, are added in dose-response. Cells are incubated with compound dilutions for another 6 days at 37° C. in an incubator with 5% CO2. Cell viability is quantitated using the ATPlite kit (Perkin-Elmer) and the luminescence is read-out using an Envision instrument (Perkin-Elmer). The amount of relative light units produced using the ATPlite kit is used to calculated percent of inhibition.
(§2) The activities of example compounds tested are depicted in the table below. The activity ranges A, B and C refer to EC50 values in the mesothelioma cell line proliferation assay as described as follows: “A”: EC50<1 μM; “B”: 1 μM s EC50≤10 μM and “C”: EC50>10 μM. NT: not tested.
For orientation: Cellular ATP, detected with luciferase, serves as a proxy for viable cell number.

The subject of experiment [1] is YAP/TAZ-TEAD transcription. Nature of the experiment: Reporter gene assay for measuring the inhibition of YAP/TAZ-TEAD transcription (TEAD-responsive element luciferase reporter in Hek293T cells). The settings on record: Homo sapiens, HEK-293T, 24 hours incubation. In short, it runs like this:
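Hek293T cells transiently transfected with a TEAD-responsive element luciferase reporter were plated onto compounds and incubated 24 h at 37 °C/5% CO2. SteadyLite luminescence gave percent inhibition, normalised to vehicle (0%) and positive control inhibitor (100%); EC50 derived.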
(In a reporter assay the amount or activity of a reporter protein is the signal.)

Another experiment relates to NCI-H226. Nature of the experiment: Mesothelioma cell line proliferation assay (ATPlite), NCI-H226. Particulars: Homo sapiens, 144 h; NCI-H226 cells, 6 days, ATPlite cell viability. Here is the method:
as §1, §2

The term EC50 denotes the midpoint of the concentration-response curve. High values mean weaker potency, low ones greater potency. `C=CC(=O)NCc1ccc(-c2cccc(F)c2)cc1-c1ccn(C)n1` [compound 142, N-((3′-fluoro-3-(1-methyl-1H-pyrazol-3-yl)-[1,1′-biphenyl]-4-yl)methyl)acrylamide]: the EC50 (with NCI-H2052; in experiment [1]; in the experiment with NCI-H226) was less than 1 µM in each case.
With `C=CC(=O)NCc1ccc(-c2ccc(F)cc2)cc1-c1ccn(C)n1` [compound 143, N-((4′-fluoro-3-(1-methyl-1H-pyrazol-3-yl)-[1,1′-biphenyl]-4-yl)methyl)acrylamide], the EC50 (with NCI-H2052; in experiment [1]; in the experiment with NCI-H226) was less than 1 µM each time.
On to `C=CC(=O)NCc1ccc(-c2ccc(F)c(F)c2)cc1-c1ccn(C)n1` [compound 144, N-((3′,4′-difluoro-3-(1-methyl-1H-pyrazol-3-yl)-[1,1′-biphenyl]-4-yl)methyl)acrylamide], for which the EC50 (in the experiment on NCI-H2052; in experiment [1]; in the experiment on NCI-H226) was less than 1 µM in each case.
For `C=CC(=O)NCc1ccc(-c2ccc(F)cc2F)cc1-c1ccn(C)n1` [compound 145, N-((2′,4′-difluoro-3-(1-methyl-1H-pyrazol-3-yl)-[1,1′-biphenyl]-4-yl)methyl)acrylamide], the EC50 (with NCI-H2052; in experiment [1]; in the experiment with NCI-H226) was less than 1 µM each time.
Consider `C=CC(=O)NCc1ccc(-c2ccc(F)cc2)cc1-c1ccn(CCOC)n1` [compound 149, N-((4′-fluoro-3-(1-(2-methoxyethyl)-1H-pyrazol-3-yl)-[1,1′-biphenyl]-4-yl)methyl)acrylamide], for which the 50% effective concentration (EC50) (in the experiment with NCI-H2052; in experiment [1]; in the experiment with NCI-H226) was less than 1 µM each time.
As to `C=CC(=O)NCc1ccc(-c2ccc(F)cc2)cc1-c1ccn(CC2CC2)n1` [compound 153, N-((3-(1-(cyclopropylmethyl)-1H-pyrazol-3-yl)-4′-fluoro-[1,1′-biphenyl]-4-yl)methyl)acrylamide], the EC50 (in the experiment on NCI-H2052; in experiment [1]; in the experiment with NCI-H226) was less than 1 µM throughout.
For the compound `C=CC(=O)NCc1ccc(-c2ccc(Cl)cc2)cc1-c1ccn(C)n1` [compound 157, N-((4′-chloro-3-(1-methyl-1H-pyrazol-3-yl)-[1,1′-biphenyl]-4-yl)methyl)acrylamide], the concentration for a half-maximal effect (EC50) (in the experiment on NCI-H2052; in experiment [1]; in the experiment on NCI-H226) was less than 1 µM in each case.
`C=CC(=O)NCc1ccc(-c2ccc(F)cc2)cc1-c1cc[nH]n1` [compound 161, N-((4′-fluoro-3-(1H-pyrazol-3-yl)-[1,1′-biphenyl]-4-yl)methyl)acrylamide]: the EC50 (in the experiment on NCI-H2052; in experiment [1]; in the experiment with NCI-H226) was less than 1 µM in each case.
For `C=CC(=O)NCc1ccc(-c2ccc(F)cc2)cc1-c1cnn(C)c1` [compound 162, N-((4′-fluoro-3-(1-methyl-1H-pyrazol-4-yl)-[1,1′-biphenyl]-4-yl)methyl)acrylamide], the half-maximal effective concentration (EC50) (in the experiment on NCI-H2052; in experiment [1]; in the experiment on NCI-H226) was less than 1 µM each time.
For `C=CC(=O)NCc1ccc(-c2ccc(F)cc2)cc1-c1ccccn1` [compound 165, N-((4′-fluoro-3-(pyridin-2-yl)-[1,1′-biphenyl]-4-yl)methyl)acrylamide], the EC50 (in the experiment on NCI-H2052; in experiment [1]; in the experiment with NCI-H226) was less than 1 µM each time.
Turning to `C=CC(=O)NCc1ccc(-c2ccc(F)cc2)cc1-c1ccn(C2CC2)n1` [compound 166, N-((3-(1-cyclopropyl-1H-pyrazol-3-yl)-4′-fluoro-[1,1′-biphenyl]-4-yl)methyl)acrylamide], the EC50 (in the experiment with NCI-H2052; in experiment [1]; in the experiment on NCI-H226) was less than 1 µM in each case.
Turning to `C=CC(=O)NCc1ccc(-c2ccc(C(F)(F)F)cc2)cc1-c1ccn(C2CC2)n1` [compound 167, N-((3-(1-cyclopropyl-1H-pyrazol-3-yl)-4′-(trifluoromethyl)-[1,1′-biphenyl]-4-yl)methyl)acrylamide], the values for the EC50 (in the experiment on NCI-H2052; in experiment [1]; with NCI-H226) were less than 1 µM, less than 1 µM and 1 to 10 µM, respectively.
Consider `C=CC(=O)NCc1cc(-c2ccc(F)cc2)cc(-c2ccn(C3CC3)n2)c1` [compound 169, N-((5-(1-cyclopropyl-1H-pyrazol-3-yl)-4′-fluoro[1,1′-biphenyl]-3-yl)methyl)acrylamide], for which the EC50 was 1 to 10 µM with NCI-H2052, less than 1 µM in experiment [1] and less than 1 µM in the experiment on NCI-H226.
`C=CC(=O)NCc1ccc(-c2ccc(F)cc2)cc1-c1ccn(C(F)F)n1` [compound 170, N-((3-(1-(difluoromethyl)-1H-pyrazol-3-yl)-4′-fluoro-[1,1′-biphenyl]-4-yl)methyl)acrylamide]: the EC50 (in the experiment with NCI-H2052; in experiment [1]; with NCI-H226) was less than 1 µM throughout.
As for `C=CC(=O)NCc1ccc(-c2ccc(C(F)(F)F)cc2)cc1-c1ccn(C(F)F)n1` [compound 172, N-((3-(1-(difluoromethyl)-1H-pyrazol-3-yl)-4′-(trifluoromethyl)-[1,1′-biphenyl]-4-yl)methyl)acrylamide], the EC50 (in the experiment on NCI-H2052; in experiment [1]; in the experiment on NCI-H226) was less than 1 µM in each case.
As to `C=CC(=O)NCc1cc(-c2ccc(F)cc2)cc(-c2ccn(C(F)F)n2)c1` [compound 174, N-((5-(1-(difluoromethyl)-1H-pyrazol-3-yl)-4′-fluoro-[1,1′-biphenyl]-3-yl)methyl)acrylamide], the EC50 in the experiment on NCI-H2052 was 1 to 10 µM; in experiment [1], less than 1 µM; with NCI-H226, less than 1 µM.
`C=CC(=O)NCc1ccc(-c2ccc(F)cc2)cc1-c1cc(C)n(C)n1` [compound 176, N-((3-(1,5-dimethyl-1H-pyrazol-3-yl)-4′-fluoro-[1,1′-biphenyl]-4-yl)methyl)acrylamide]: the EC50 (in the experiment on NCI-H2052; in experiment [1]; in the experiment on NCI-H226) was less than 1 µM throughout.
With `C=C(F)C(=O)NCc1ccc(-c2ccc(C(F)(F)F)cc2)cc1-c1ccn(C)n1` [compound 177, 2-fluoro-N-((3-(1-methyl-1H-pyrazol-3-yl)-4′-(trifluoromethyl)-[1,1′-biphenyl]-4-yl)methyl)acrylamide], the EC50 (in the experiment with NCI-H2052; in experiment [1]; with NCI-H226) was less than 1 µM each time.
For `C=CC(=O)NCc1ccc([C@H]2CC[C@@H](C(F)(F)F)CC2)cc1-c1ccn(C)n1` [compound 179, cis-N-(2-(1-methyl-1H-pyrazol-3-yl)-4-(4-(trifluoromethyl)cyclohexyl)benzyl)acrylamide], the EC50 (in the experiment on NCI-H2052; in experiment [1]; in the experiment with NCI-H226) was less than 1 µM throughout.
Consider `C=CC(=O)NCc1ccc(C2CCC(F)(F)CC2)cc1-c1ccn(C)n1` [compound 180, N-(4-(4,4-difluorocyclohexyl)-2-(1-methyl-1H-pyrazol-3-yl)benzyl)acrylamide], for which the EC50 (in the experiment with NCI-H2052; in experiment [1]; in the experiment on NCI-H226) was less than 1 µM in each case.
`C=CC(=O)NCc1ccc(N2CCC(F)(F)CC2)cc1-c1ccn(C)n1` [compound 182, N-(4-(4,4-difluoropiperidin-1-yl)-2-(1-methyl-1H-pyrazol-3-yl)benzyl)acrylamide]: the EC50 (in the experiment with NCI-H2052; in experiment [1]; in the experiment on NCI-H226) was less than 1 µM each time.
